In publication PMC10657792, “Downstream Allosteric Modulation of NMDA Receptors by 3-Benzazepine Derivatives” (Molecular Neurobiology, 2023):
“And” between values parts separate entries of the source, which are not always exact repeats. Identical values can stand only once.

Columns and labels:
Assay in all cases: TEVC recording in X. laevis oocytes, GluN2B mutant screening
Assay type in all cases: cell-based
[1] = target: GluN1b wt/ GluN2B F194A (Rattus norvegicus, UniProt P35439+Q00960, F194A)
Sequence of GluN1b wt/ GluN2B F194A (Q00960 27-1482 F194A, other chains not shown): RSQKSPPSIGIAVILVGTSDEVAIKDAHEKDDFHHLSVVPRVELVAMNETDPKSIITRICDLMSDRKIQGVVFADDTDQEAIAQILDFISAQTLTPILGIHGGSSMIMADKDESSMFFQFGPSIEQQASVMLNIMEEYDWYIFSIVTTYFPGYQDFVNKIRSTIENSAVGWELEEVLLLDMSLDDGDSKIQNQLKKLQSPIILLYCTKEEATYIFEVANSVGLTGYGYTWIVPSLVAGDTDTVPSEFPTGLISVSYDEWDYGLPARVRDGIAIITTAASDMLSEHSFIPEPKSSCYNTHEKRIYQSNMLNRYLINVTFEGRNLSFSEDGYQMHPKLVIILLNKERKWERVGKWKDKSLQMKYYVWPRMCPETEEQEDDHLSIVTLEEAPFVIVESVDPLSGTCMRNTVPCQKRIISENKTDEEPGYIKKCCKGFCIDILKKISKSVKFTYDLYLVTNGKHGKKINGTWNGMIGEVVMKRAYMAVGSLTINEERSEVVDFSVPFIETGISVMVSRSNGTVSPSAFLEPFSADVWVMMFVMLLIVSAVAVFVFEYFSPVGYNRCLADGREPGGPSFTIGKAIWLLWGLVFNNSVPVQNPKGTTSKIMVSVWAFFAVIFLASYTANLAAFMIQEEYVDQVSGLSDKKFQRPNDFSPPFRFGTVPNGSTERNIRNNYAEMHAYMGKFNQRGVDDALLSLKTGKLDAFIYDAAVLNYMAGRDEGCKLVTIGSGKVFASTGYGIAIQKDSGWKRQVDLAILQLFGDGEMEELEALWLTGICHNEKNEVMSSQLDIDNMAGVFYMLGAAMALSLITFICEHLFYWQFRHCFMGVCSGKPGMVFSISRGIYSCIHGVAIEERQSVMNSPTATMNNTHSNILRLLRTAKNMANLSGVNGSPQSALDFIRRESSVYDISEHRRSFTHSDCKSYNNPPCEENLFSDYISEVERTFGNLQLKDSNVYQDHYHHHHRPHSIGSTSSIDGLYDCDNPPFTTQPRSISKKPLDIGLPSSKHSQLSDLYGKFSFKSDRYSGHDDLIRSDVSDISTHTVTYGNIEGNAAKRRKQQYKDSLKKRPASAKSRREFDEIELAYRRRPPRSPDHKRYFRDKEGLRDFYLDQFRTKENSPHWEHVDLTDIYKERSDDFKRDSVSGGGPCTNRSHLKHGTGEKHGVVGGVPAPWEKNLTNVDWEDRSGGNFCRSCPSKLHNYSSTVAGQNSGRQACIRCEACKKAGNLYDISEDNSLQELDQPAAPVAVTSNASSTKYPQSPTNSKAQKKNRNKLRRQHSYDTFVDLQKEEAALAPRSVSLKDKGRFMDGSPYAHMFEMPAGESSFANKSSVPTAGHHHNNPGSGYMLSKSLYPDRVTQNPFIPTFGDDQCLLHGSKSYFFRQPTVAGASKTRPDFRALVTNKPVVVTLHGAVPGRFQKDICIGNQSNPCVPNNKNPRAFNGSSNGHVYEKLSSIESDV
Protocol: (§1) Single point mutations were incorporated into template DNA (GluN1-1b wt/ pSGEM and GluN2B wt/ pSGEM) by using the QuikChange II XL site-directed mutagenesis kit (Agilent Technologies, Germany). Mutagenesis primers were designed using the QuikChange Primer Design Program (Agilent) and provided by Microsynth (Microsynth AG, Balgach, Switzerland). For mutation of the desired amino acid in the gene, PCR amplification was performed with the respective mutagenesis primers (Eppendorf MasterCycler Gradient, Eppendorf Hamburg, Germany). Mutations were verified by automated DNA sequencing. Constructs were linearized with PacI (GluN1) or NheI (GluN2B). cRNA was prepared byin vitrotranscription using the mMessage mMachine T7 kit (Life Technologies, Darmstadt, Germany).
(§2) The NMDAR was expressed in stage V and VI oocytes originated from X. laevis. Oocytes were provided by Ecocyte Bioscience (Dortmund, Germany), and equimolar amounts of wild-type and mutated GluN1 and GluN2B cRNA were injected (0.8 ng each). The oocytes were incubated in Barth’s solution, containing (mmol l^−1): 88 NaCl, 1 KCl, 0.4 CaCl2, 0.33 Ca(NO3)2, 0.6 MgSO4, 5 TRIS–HCl, 2.4 NaHCO3, supplemented with 80 mg l^−1 theophylline, 63 mg l^−1 benzylpenicillin, 40 mg l^−1 streptomycin, and 100 mg l^−1 gentamycin and maintained at 18 °C until usage. After injection, the oocytes were incubated for 5 days at 18 °C. Subsequently, the activity of the expressed NMDARs in the oocytes was recorded by two-electrode voltage clamp (TEVC).
(§3) The compounds were retrieved as 10 mM stock solutions in DMSO and were subsequently diluted with agonist solution and adjusted to 0.1% DMSO concentration. Inhibition of each compound was measured via TEVC in X. laevis oocytes at room temperature using a Turbo Tec 10CX amplifier (NPI electronic, Tamm, Germany), NI USB 6221 DA/AD Interface (National Instruments, Austin, USA), and GePulse Software (Dr. Michael Pusch, Genova, Italy). Ba^2+-Ringer, consisting of 10 mM HEPES, 90 mM NaCl, 1 mM KCl, and 1.5 mM BaCl2, adjusted to pH 7.4, was used for TEVC measurements. Agonist solution containing 10 µM glycine and 10 µM (S)-glutamate was prepared in Ba^2+-Ringer, and the measurements were performed at a holding potential of − 70 mV, using electrodes with a glass capillary filled with 3 M KCl and a resistance between 0.5 and 1.5 MΩ. The compounds were tested by applying ascending concentrations, ranging from 1 to 30,000 nM, in at least six oocytes. Example traces for all recorded conditions can be found in Supplementary Figs. S2–S9.
(§4) TEVC data were analyzed using Ana (Dr. Michael Pusch, Genova, Italy), and statistics were performed using OriginPro 2020 (OriginLab Corporation, Northampton, USA). The inhibitory effect of each compound is calculated using the following equation: inhibition=1-Ic-Ih/Ia-Ih where Ih describes the current in the absence of agonists; Ia represents the steady-state current in the presence of the agonists; and Ic is defined as the steady-state after binding of agonist and compound. All dose response curves are fitted to the following logistic equation: y=A1-A2/1+x/x0^p+A2 where A1 describes the minimal inhibition of a compound and was set to 0; A2 represents the maximal inhibition of a compound; p is the slope of the curve; x0 is defined as the concentration at half-maximal inhibition; and x is the tested concentration. Data were statistically analyzed by one-way ANOVA and Tukey post-hoc mean comparison test in OriginPro 2020 (OriginLab Corporation, Northampton, USA). p values are indicated by * for p < 0.05, ** for p < 0.01, and *** for p < 0.001.

[2] = target: GluN1a wt/ GluN2B F176A (Rattus norvegicus, UniProt P35439+Q00960, F176A); conditions: fitted curve
Protocol: as §1, §2, §3, §4

[3] = target: GluN1b wt/ GluN2B N192A/F194A (Rattus norvegicus, UniProt P35439+Q00960, F194A/N192A)
Protocol: as §1, §2, §3, §4

[4] = target: GluN1b wt/ GluN2B N192A (Rattus norvegicus, UniProt P35439+Q00960, N192A)
Sequence of GluN1b wt/ GluN2B N192A (Q00960 27-1482 N192A, other chains not shown): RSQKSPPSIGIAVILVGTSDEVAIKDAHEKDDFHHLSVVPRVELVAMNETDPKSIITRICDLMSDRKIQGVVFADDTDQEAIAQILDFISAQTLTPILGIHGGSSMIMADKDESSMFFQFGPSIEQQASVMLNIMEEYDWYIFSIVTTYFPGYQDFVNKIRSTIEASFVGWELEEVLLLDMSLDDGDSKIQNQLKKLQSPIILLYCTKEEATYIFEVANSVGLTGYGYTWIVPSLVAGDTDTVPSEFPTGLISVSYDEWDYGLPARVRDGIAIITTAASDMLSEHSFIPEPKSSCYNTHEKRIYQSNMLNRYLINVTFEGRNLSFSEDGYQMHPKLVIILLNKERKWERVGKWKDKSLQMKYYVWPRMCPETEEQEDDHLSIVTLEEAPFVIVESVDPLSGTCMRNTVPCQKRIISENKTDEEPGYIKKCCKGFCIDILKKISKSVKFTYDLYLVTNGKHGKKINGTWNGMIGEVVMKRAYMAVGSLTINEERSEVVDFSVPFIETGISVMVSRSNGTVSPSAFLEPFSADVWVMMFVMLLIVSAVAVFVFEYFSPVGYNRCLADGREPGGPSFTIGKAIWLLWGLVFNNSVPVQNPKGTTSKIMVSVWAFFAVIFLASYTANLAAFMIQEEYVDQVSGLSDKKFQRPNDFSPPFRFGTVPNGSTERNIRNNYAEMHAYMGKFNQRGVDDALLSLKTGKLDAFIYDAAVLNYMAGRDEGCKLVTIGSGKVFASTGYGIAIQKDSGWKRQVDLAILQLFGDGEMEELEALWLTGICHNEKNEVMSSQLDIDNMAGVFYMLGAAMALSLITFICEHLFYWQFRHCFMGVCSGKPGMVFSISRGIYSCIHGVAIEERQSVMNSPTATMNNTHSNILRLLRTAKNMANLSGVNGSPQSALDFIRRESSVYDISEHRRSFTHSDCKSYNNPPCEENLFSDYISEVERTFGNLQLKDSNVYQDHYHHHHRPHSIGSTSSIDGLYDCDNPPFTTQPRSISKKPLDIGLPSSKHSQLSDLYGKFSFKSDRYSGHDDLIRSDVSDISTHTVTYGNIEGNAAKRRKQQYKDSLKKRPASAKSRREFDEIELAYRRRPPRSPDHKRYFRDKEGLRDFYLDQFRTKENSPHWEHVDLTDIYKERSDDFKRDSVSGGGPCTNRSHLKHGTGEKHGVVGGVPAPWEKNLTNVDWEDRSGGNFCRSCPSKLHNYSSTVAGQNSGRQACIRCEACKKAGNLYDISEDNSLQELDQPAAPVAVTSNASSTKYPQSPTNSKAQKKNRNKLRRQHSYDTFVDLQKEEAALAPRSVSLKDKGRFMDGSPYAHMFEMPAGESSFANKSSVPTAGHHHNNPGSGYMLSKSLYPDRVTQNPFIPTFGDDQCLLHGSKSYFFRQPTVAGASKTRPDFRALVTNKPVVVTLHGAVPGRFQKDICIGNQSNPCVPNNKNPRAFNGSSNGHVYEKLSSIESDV
Protocol: as §1, §2, §3, §4

[5] = target: GluN1b wt/ GluN2B F114A (Rattus norvegicus, UniProt P35439+Q00960, F114A); conditions: fitted curve
Protocol: as §1, §2, §3, §4

[6] = target: GluN1b wt/ GluN2B E236A (Rattus norvegicus, UniProt P35439+Q00960, E236A)
Protocol: as §1, §2, §3, §4

[7] = target: GluN1a wt/ GluN2B N192A (Rattus norvegicus, UniProt P35439+Q00960, N192A); conditions: for inhibition (%): GluN1-1a GluN2B N192A, single oocytes
Sequence of GluN1a wt/ GluN2B N192A (Q00960 27-1482 N192A, other chains not shown): as above

[8] = agonists 10 µM glycine + 10 µM (S)-glutamate, fitted curve

## Oc1ccc2c(c1)CCN(CCCCc1ccccc1F)C[C@@H]2O [(R)-OF-NB1]
[1]; GluN1-1b GluN2B F194A, compound concentration 1 μM, single oocytes
  inhibition at 1 µM: 39.3%
[1]; GluN1-1b GluN2B F194A, compound concentration 30 μM, single oocytes
  inhibition at 30 µM: 51.8%
[1]; [8]
  IC50: 3.84 µM
[1]; fitted curve
  Hill coefficient: 0.5
[2]
  Hill coefficient: 0.5
[3]; GluN1-1b GluN2B N192A/F194A, compound concentration 1 μM, single oocytes
  inhibition at 1 µM: 23.8%
[3]; GluN1-1b GluN2B N192A/F194A, compound concentration 10 μM, single oocytes
  inhibition at 10 µM: 35.6%
[3]; GluN1-1b GluN2B N192A/F194A, compound concentration 30 μM, single oocytes
  inhibition at 30 µM: 37%
[3]; [8]
  IC50: 7.52 µM
[3]; fitted curve
  Hill coefficient: 0.3
[4]; GluN1-1b GluN2B N192A, compound concentration 10 μM, single oocytes
  inhibition at 10 µM: 69.9%
[4]; GluN1-1b GluN2B N192A, compound concentration 30 μM, single oocytes
  inhibition at 30 µM: 76.3%
[4]; [8]
  IC50: 0.567 µM
[4]; fitted curve
  Hill coefficient: 1.3
[5]; agonists 10 µM glycine + 10 µM (S)-glutamate
  IC50: 14.2 µM
[5]
  Hill coefficient: 0.9
[6]; GluN1-1b/E236A, compound concentration 1 μM, single oocytes
  inhibition at 1 µM: 39.5%
[6]; GluN1-1b/E236A, compound concentration 10 μM, single oocytes
  inhibition at 10 µM: 51.9%
[6]; GluN1-1b/E236A, compound concentration 30 μM, single oocytes
  inhibition at 30 µM: 61.6%
[6]; [8]
  IC50: 3.15 µM
[6]; fitted curve
  Hill coefficient: 0.6
[7]; compound concentration 1 μM, 1 µM
  inhibition (%): 66.1572% and 79.6651% and 73.3591% and 75.5102% and 40.4665% and 73.3363% and 63.7681%
[7]; compound concentration 10 μM, 10 µM
  inhibition (%): 77.2198% and 89.4737% and 79.5367% and 82.6531% and 48.1744% and 82.1493% and 73.43%
[7]; compound concentration 30 μM, 30 µM
  inhibition (%): 83.1878% and 94.0191% and 84.556% and 89.7959% and 61.6633% and 86.6457% and 82.1256%
[7]; [8]
  IC50: 0.282 µM
[7]; fitted curve
  Hill coefficient: 0.4
